The record followed here is patent publication US20260256756A1, “USE OF PIPERIDINE ALKENE COMPOUND IN PREPARATION OF DRUG FOR TREATING CANCER” (JIANGSU HANSOH PHARMACEUTICAL GROUP CO., LTD., priority 2023, published 2026).

In general, T/C refers to the ratio of treated to control. Usually TGI stands for how far tumour growth fell short of that in controls. A lower TGI goes with little slowing of growth.

The test system of the test is human pancreatic cancer cell line Capan-1 xenograft tumor. The test can be described thus: Subcutaneous xenograft tumor model of human pancreatic cancer cell line Capan-1. It is filed as in vivo, BALB/c nude mice. The conditions noted are these: Capan-1, 100 mg/kg oral once/day. An excerpt:
• 1. Experimental objective: To evaluate the in vivo efficacy of compound 1 in a subcutaneous xenograft tumor model of human pancreatic cancer cell line Capan-1 in nude mice. • 2. Reagent • IMDM medium (30-2005, ATCC) and fetal bovine serum (FBS) (35-081-CV, Corning) • DPBS (21-031-CVR, Corning) and Matrigel (354234, Corning) • HPMC (H02J10D78204, Shanghai Yuanye Bio-Technology Co., Ltd.) • Trypsin-EDTA (25200-072, Gibco), penicillin and streptomycin (MA0110, Dalian Meilun Biotechnology Co., Ltd.) • 3. Experimental operations and data processing • 3.1 Animals: • BALB/c nude mice, 6-8 weeks old, female, purchased from Jiangsu GemPharmatech Co., Ltd. • 3.2 Cell culture and cell suspension preparation • a. A vial of Capan-1 cells was taken from a cell bank, the cells were thawed with IMDM medium (IMDM+20% FBS), and the thawed cells were placed in a cell culture flask (with the cell type, date, the name of the culture operator, etc., being marked on the wall of the flask), which were placed in a CO2 incubator for culturing (wherein the temperature of the incubator was 37° C., and the CO2 concentration was 5%). • b. The cells were passaged once a week, and after passage, the cells were placed in the CO2 incubator to continue the culture. This process was repeated until the cell number met the requirements for in vivo efficacy. • c. The cultured cells were collected, counted using a full-automatic cell counter, and resuspended with PBS on the basis of the counting results to prepare a cell suspension (at a density of 5×10^7/mL). An equal volume of Matrigel was added to the cell suspension, and the resulting mixture was mixed uniformly and then placed in an ice box for later use. • 3.3 Cell inoculation • a. Before inoculation, the nude mice were marked with disposable universal ear tags for mice and rats. • b. At the time of inoculation, the cell suspension was mixed uniformly, 0.2-1 mL of the cell suspension was aspirated using a 1 mL syringe with air bubbles expelled, and the syringe was then placed on an ice bag for later use. • c. […] Tumor was measured on days 4-7 after inoculation depending on the tumor growth, and the tumor size was calculated.
tumor volume (mm^3)=length (mm)×width (mm)×width (mm)/2 Tumor volume calculation: • b. […] The tumor inhibitory efficacy of the compound was evaluated by TGI (%) and ΔT/ΔC (%). ΔT/ΔC (%)=(T−T0)/(C−C0)×100, where T and C are the tumor volumes of the treatment group and the vehicle control group at the end of the experiment, respectively, and T0 and C0 are the tumor volumes of the treatment group and the vehicle control group at the beginning of the experiment, respectively. […]
On the technique in general: In xenograft studies the graft and the host belong to different species.

As for `O=C(c1cc(Cc2n[nH]c(=O)c3ccccc23)ccc1F)N1CCN(C(=O)C2CC2)CC1` [Olaparib], the “Tumor volume (Mean ± SEM)” value (Day 0) amounted to 164 ± 13 mm^3. Under “Day 28”, the T/C was 86.27%, the tumour growth inhibition (TGI) is given as 14.39% and the “Tumor volume (Mean ± SEM)” value stood at 724 ± 82 mm^3.
